{"source": "PubChem BioAssay AID1259411", "about": "(Chemical Carcinogenesis Research Information System (CCRIS), 2018)", "tested_on": "rodent carcinogenicity bioassays, tumor incidence", "assay": "CCRIS carcinogenicity studies", "settings": "Dose: 0, Dose: 0", "method_in_brief": "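NCI-built, expert-reviewed records of carcinogenicity and related test outcomes (mutagenicity, tumor promotion/inhibition) compiled from published and report sources, historical span 1985-2011, not updated.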", "note": "Active and inactive are the calls of the source. No rule for the calls is given here.", "data": [{"smiles": "O=P(O)(OCC(Br)CBr)OCC(Br)CBr", "note": "(centres undefined)", "values": [{"measurement": "carcinogen call", "setting": "Species: RAT, Strain/Sex: WISTAR/FEMALE, Route: ORAL, 80, 400, 2000 IN DIET FOR 24 MO (STUDY DURATION: 24 MO), 80, 400, 2000 IN DIET FOR 24 MO (STUDY DURATION: 24 MO), Tumor Site: Type of Lesion: LIVER: HEPATOCELLULAR CARCINOMA, SMALL INTESTINE: ADENOCARCINOMA, FORESTOMACH: PAPILLOMA, ESOPHAGUS: PAPILLOMA, Tumor Site: Type of Lesion: LIVER: HEPATOCELLULAR CARCINOMA, SMALL INTESTINE: ADENOCARCINOMA, FORESTOMACH: PAPILLOMA, ESOPHAGUS: PAPILLOMA", "value": "active; positive"}, {"measurement": "carcinogen call", "setting": "Species: RAT, Strain/Sex: WISTAR/MALE, Route: ORAL, 80, 400, 2000 IN DIET FOR 24 MO (STUDY DURATION: 24 MO), 80, 400, 2000 IN DIET FOR 24 MO (STUDY DURATION: 24 MO), Tumor Site: Type of Lesion: SMALL INTESTINE: ADENOCARCINOMA, FORESTOMACH: PAPILLOMA, ESOPHAGUS: PAPILLOMA, Tumor Site: Type of Lesion: SMALL INTESTINE: ADENOCARCINOMA, FORESTOMACH: PAPILLOMA, ESOPHAGUS: PAPILLOMA", "value": "active; positive"}]}, {"smiles": "CCn1cc(C(=O)O)c(=O)c2ccc(C)nc21", "values": [{"measurement": "carcinogen call", "setting": "Species: MOUSE, Strain/Sex: B6C3F1/FEMALE, Route: ORAL, 2000, 4000 PPM IN FEED FOR 103 WK (STUDY DURATION: 104 WK), 2000, 4000 PPM IN FEED FOR 103 WK (STUDY DURATION: 104 WK)", "value": "inactive; negative"}, {"measurement": "carcinogen call", "setting": "Species: MOUSE, Strain/Sex: B6C3F1/MALE, Route: ORAL, 2000, 4000 PPM IN FEED FOR 103 WK (STUDY DURATION: 104 WK), 2000, 4000 PPM IN FEED FOR 103 WK (STUDY DURATION: 104 WK), Tumor Site: Type of Lesion: INTEGUMENTARY SYSTEM (SUBCUTANEOUS TISSUE): FIBROMA OR FIBROSARCOMA", "value": "equivocal"}, {"measurement": "carcinogen call", "setting": "Species: RAT, Strain/Sex: F344/FEMALE, Route: ORAL, 2000, 4000 PPM IN FEED FOR 103 WK (STUDY DURATION: 104 WK), 2000, 4000 PPM IN FEED FOR 103 WK (STUDY DURATION: 104 WK), Tumor Site: Type of Lesion: CLITORAL GLAND: ADENOMA, ADENOMA OR PAPILLOMA, ADENOMA OR PAPILLOMA OR CARCINOMA OR PAPILLARY CARCINOMA", "value": "active; positive"}, {"measurement": "carcinogen call", "setting": "Species: RAT, Strain/Sex: F344/MALE, Route: ORAL, 2000, 4000 PPM IN FEED FOR 103 WK (STUDY DURATION: 104 WK), 2000, 4000 PPM IN FEED FOR 103 WK (STUDY DURATION: 104 WK), Tumor Site: Type of Lesion: PREPUTIAL GLAND: ADENOMA, ADENOMA OR PAPILLOMA, CARCINOMA", "value": "active; positive"}]}, {"smiles": "Clc1ccc(-c2cc(Cl)c(Cl)cc2Cl)cc1Cl", "values": [{"measurement": "carcinogen call", "setting": "Species: Rat, Strain/Sex: Harlan Sprague-Dawley/Female (80/Group), Route: Oral, 100, 220, 460, 1000, 4600 ug/kg in corn oil, by gavage, 5 d/wk for 2 yr, 100, 220, 460, 1000, 4600 ug/kg in corn oil, by gavage, 5 d/wk for 2 yr, Tumor Site: Type of Lesion: Liver: cholangiocarcinoma (0/52, 0/51, 0/52, 0/52, 3/52, 36/49, 29/49), hepatocellular adenoma (0/52, 1/51, 1/52, 4/52", "value": "active; positive"}]}, {"smiles": "CC(C)O", "values": [{"measurement": "carcinogen call", "setting": "Species: MOUSE, Strain/Sex: CD-1/FEMALE, Route: INHALATION, 500, 2500, 5000 PPM 6 HR/D 5 D/WK FOR 78 WK (STUDY DURATION: 78 WK), 500, 2500, 5000 PPM 6 HR/D 5 D/WK FOR 78 WK (STUDY DURATION: 78 WK)", "value": "inactive; negative"}, {"measurement": "carcinogen call", "setting": "Species: MOUSE, Strain/Sex: CD-1/MALE, Route: INHALATION, 500, 2500, 5000 PPM 6 HR/D 5 D/WK FOR 78 WK (STUDY DURATION: 78 WK), 500, 2500, 5000 PPM 6 HR/D 5 D/WK FOR 78 WK (STUDY DURATION: 78 WK)", "value": "inactive; negative"}, {"measurement": "carcinogen call", "setting": "Species: RAT, Strain/Sex: F344/FEMALE, Route: INHALATION, 500, 2500, 5000 PPM 6 HR/D 5 D/WK FOR 104 WK (STUDY DURATION: 104 WK), 500, 2500, 5000 PPM 6 HR/D 5 D/WK FOR 104 WK (STUDY DURATION: 104 WK)", "value": "inactive; negative"}, {"measurement": "carcinogen call", "setting": "Species: RAT, Strain/Sex: F344/MALE, Route: INHALATION, 500, 2500, 5000 PPM 6 HR/D 5 D/WK FOR 104 WK (STUDY DURATION: 104 WK), 500, 2500, 5000 PPM 6 HR/D 5 D/WK FOR 104 WK (STUDY DURATION: 104 WK)", "value": "inactive; negative"}]}, {"smiles": "FC(Cl)(Cl)Cl", "values": [{"measurement": "carcinogen call", "setting": "Species: MOUSE, Strain/Sex: B6C3F1/FEMALE, Route: GAVAGE, 1962, 3925 MG/KG, TWA, 1962, 3925 MG/KG, TWA", "value": "inactive; negative"}, {"measurement": "carcinogen call", "setting": "Species: MOUSE, Strain/Sex: B6C3F1/MALE, Route: GAVAGE, 1962, 3925 MG/KG, TWA, 1962, 3925 MG/KG, TWA", "value": "inactive; negative"}, {"measurement": "carcinogen call", "setting": "Species: MOUSE, Strain/Sex: SWISS/FEMALE, Route: INHALATION, 1000, 5000 PPM 4 HR/D 5 D/WK FOR 78 WK (STUDY DURATION: LIFETIME), 1000, 5000 PPM 4 HR/D 5 D/WK FOR 78 WK (STUDY DURATION: LIFETIME)", "value": "inactive; negative"}, {"measurement": "carcinogen call", "setting": "Species: MOUSE, Strain/Sex: SWISS/MALE, Route: INHALATION, 1000, 5000 PPM 4 HR/D 5 D/WK FOR 78 WK (STUDY DURATION: LIFETIME), 1000, 5000 PPM 4 HR/D 5 D/WK FOR 78 WK (STUDY DURATION: LIFETIME)", "value": "inactive; negative"}, {"measurement": "carcinogen call", "setting": "Species: RAT, Strain/Sex: SPRAGUE-DAWLEY/FEMALE, Route: INHALATION, 1000, 5000 PPM 4 HR/D 5 D/WK FOR 104 WK (STUDY DURATION: LIFETIME), 1000, 5000 PPM 4 HR/D 5 D/WK FOR 104 WK (STUDY DURATION: LIFETIME)", "value": "inactive; negative"}, {"measurement": "carcinogen call", "setting": "Species: RAT, Strain/Sex: SPRAGUE-DAWLEY/FEMALE, Route: INHALATION, 1000, 5000 PPM IN AIR 4 HR/D 5 D/WK FOR 104 WK (STUDY DURATION: LIFETIME), 1000, 5000 PPM IN AIR 4 HR/D 5 D/WK FOR 104 WK (STUDY DURATION: LIFETIME), Tumor Site: Type of Lesion: [BRAIN WAS ONLY SITE EVALUATED]", "value": "inactive; negative"}, {"measurement": "carcinogen call", "setting": "Species: RAT, Strain/Sex: SPRAGUE-DAWLEY/MALE, Route: INHALATION, 1000, 5000 PPM 4 HR/D 5 D/WK FOR 104 WK (STUDY DURATION: LIFETIME), 1000, 5000 PPM 4 HR/D 5 D/WK FOR 104 WK (STUDY DURATION: LIFETIME)", "value": "inactive; negative"}, {"measurement": "carcinogen call", "setting": "Species: RAT, Strain/Sex: SPRAGUE-DAWLEY/MALE, Route: INHALATION, 1000, 5000 PPM IN AIR 4 HR/D 5 D/WK FOR 104 WK (STUDY DURATION: LIFETIME), 1000, 5000 PPM IN AIR 4 HR/D 5 D/WK FOR 104 WK (STUDY DURATION: LIFETIME), Tumor Site: Type of Lesion: [BRAIN WAS ONLY SITE EVALUATED]", "value": "inactive; negative"}]}]}
